Laboratory results published in US20060223812A1, “Treating neurodegenerative conditions” (MAX-PLANCK-GESELLSCHAFT ZUR FORDERUNGDER WISSENSCHAFTEN, …, priority 2004, published 2006).
“And” between values parts separate entries of the source, which are not always exact repeats. Equal values may be shown once. Read-outs that look alike come from different tables or passages of the source.

Columns and labels:
K18/ΔK280 = K18/ΔK280 (Homo sapiens, UniProt P10636, DEL598-598); assay: Thioflavine S assay, inhibition of PHF formation, K18/ΔK280 without heparin; format: biochemical
Sequence of K18/ΔK280 (P10636 with tags, fused parts or gaps DEL598-598): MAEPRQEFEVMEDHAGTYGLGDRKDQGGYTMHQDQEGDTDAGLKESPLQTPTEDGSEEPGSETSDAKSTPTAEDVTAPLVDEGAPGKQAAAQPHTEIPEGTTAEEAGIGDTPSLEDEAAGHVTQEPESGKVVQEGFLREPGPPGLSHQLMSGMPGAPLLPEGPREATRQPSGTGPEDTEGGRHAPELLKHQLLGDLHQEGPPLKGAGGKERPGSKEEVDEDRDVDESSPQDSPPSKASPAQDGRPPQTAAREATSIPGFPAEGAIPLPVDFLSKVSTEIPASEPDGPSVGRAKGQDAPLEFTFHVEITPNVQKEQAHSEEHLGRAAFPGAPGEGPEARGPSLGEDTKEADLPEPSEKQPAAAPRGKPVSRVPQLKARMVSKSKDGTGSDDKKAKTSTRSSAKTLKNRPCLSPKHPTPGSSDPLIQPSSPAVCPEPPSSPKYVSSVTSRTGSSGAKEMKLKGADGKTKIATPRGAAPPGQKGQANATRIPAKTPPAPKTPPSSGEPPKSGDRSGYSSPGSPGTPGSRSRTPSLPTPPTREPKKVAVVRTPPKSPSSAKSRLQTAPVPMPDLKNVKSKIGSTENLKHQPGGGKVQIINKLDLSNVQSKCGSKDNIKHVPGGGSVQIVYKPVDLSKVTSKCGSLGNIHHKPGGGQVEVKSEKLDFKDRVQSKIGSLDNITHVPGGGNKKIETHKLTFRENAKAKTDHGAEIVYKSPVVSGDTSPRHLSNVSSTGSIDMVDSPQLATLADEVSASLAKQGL
Text: All the polymerisation reactions described so far used heparin as a cofactor for inducing PHF assembly because otherwise the process would be impracticably slow (Goedert et al., 1996; Perez et al., 1996). In order to rule out a potential influence of heparin on the efficiency of the compounds the 4-repeat construct K18/ΔK280 which carries one of the mutations observed in frontotemporal dementia (van Swieten et al., 1999) and is capable of polymerising into PHFs without a polyanionic cofactor (von Bergen, 2001) (FIG. 2E) was used. […] The differences in inhibition effects for K18 (with heparin) and K18/ΔK280 (without heparin) could be caused either by a difference in conformation and/or protein-protein interactions, or perhaps by an interaction between the compound and the cofactor heparin.

K18/ΔK280/Y310W = assay: Tryptophan fluorescence inhibition assay, K18/ΔK280/Y310W; format: biochemical, human; conditions: 60 μM compound
Text: In order to exclude a possible distortion of the data by the dye the results of the ThS assays can be confirmed by a tryptophan fluorescence assay (Li et al., 2002). It allows the detection of the molecular environment of a tryptophan introduced instead of tyrosine 310 whose emission maximum is sensitive to the burial in a more hydrophobic surrounding upon PHF formation. Therefore the mutants K19/Y310W (FIG. 1I) and K18/Y310W (FIG. 1H) that contain a single tryptophan within the core of the PHF structure were created. In the soluble protein the emission maximum lies at ˜354 nm, whereas it shifts to 340 nm upon PHF formation (FIG. 3A, compare first and second entry). […]
The fluorescence experiments were performed on a Spex Fluoromax spectrophotometer (Polytec, Waldbronn, Germany) using 3 mm×3 mm micro cuvettes from Hellma (Mühlheim, Germany) with 20 μl sample volumes. […] The slit widths were 5 nm, the integration time was 0.25 second, and the photomultiplier voltage was 950 V. For fluorescence inhibition assay, 60 μM compounds were incubated with K19/Y310W construct (10 μM) or K18/ΔK280/Y310W and heparin (2.5 μM) in PBS, pH 7.4 three days at 37° C. […]
(A-C) fluorescence emission maximum of the single tryptophan W310 inserted by site-directed mutagenesis into tau constructs K19 (FIG. 3A), K18 (FIG. 3B) and K18/ΔK280 (FIG. 3C). […]

K19 PHFs = target: T1, K19 PHFs (Homo sapiens, UniProt P10636); assay: Depolymerisation of K19 PHFs at prolonged incubation times; format: biochemical; conditions: 0.5 μM compound, after 12 hours
T1 construct: construct K19 containing three repeats; made in house; host or cells: E. coli
T1 sequence (P10636 with tags, fused parts or gaps isoform P10636-2 limits assumed): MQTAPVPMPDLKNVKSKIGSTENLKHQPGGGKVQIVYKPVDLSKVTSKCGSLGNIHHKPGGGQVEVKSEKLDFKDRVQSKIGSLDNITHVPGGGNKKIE
Procedure: Untreated controls were measured in parallel and subtracted as background.

PHFs from K19 = target: T2, PHFs from K19 (Homo sapiens, UniProt P10636); assay: Thioflavine S assay, depolymerisation of pre-formed PHFs, K19; format: biochemical
T2 construct: construct K19 containing three repeats; made in house; host or cells: E. coli
T2 sequence (P10636 with tags, fused parts or gaps isoform P10636-2 limits assumed): as above
Procedure: Depolymerisation of PHFs was monitored by the thioflavine S fluorescence. 60 μM of each compound was tested for its ability to depolymerise pre-formed PHFs. 50 mM NH4Ac, 10 μM PHF (K19), 60 μM compound and 5 μM heparin were mixed in 50 μl volume in a 384 well plate (black microtiter 384 plate round well, ThermoLabsystems, Dreiich, Germany) and incubated overnight at 37° C. As a control the reaction mixture without compound was treated in the same way.
After incubation thioflavine S was added to the buffer to a final concentration of 20 μM and the signal was measured at excitation at 440 nm and emission at 521 nm in a spectrofluorimeter (Ascent; Labsystems, Frankfurt).
The ThS assay was used to analyse the ability of the five compounds (see Example 4) to depolymerise pre-formed PHFs made from the repeat domain constructs K19 and K18 as well as from isoforms htau23 and htau24, containing 3 or 4 repeats, respectively.
The depolymerisation of K19 filaments (FIG. 4A) followed a similar concentration dependence as the inhibition experiment, with consistently similar or slightly higher DC50 values than the corresponding IC50 concentrations (Table 2). The ratios of IC50/DC50 range from 0.2-1.2. […] Here, too, the concentration dependence for K19 was steeper than for K18 (compare FIGS. 4A, B), similar to that of assembly inhibition (FIGS. 2A, B).
Tau constructs and isoforms K19, K18, hTau23, hTau24 (10 μM) were first aggregated into PHFs for 48 hours in the presence of 2.5 μM heparin (except K18/ΔK280) and the polymers separated from the soluble tau by centrifugation of 1 h at 100,000 g, redissolved and then exposed to the inhibitors overnight at 37° C. at the indicated concentrations (range 0.001-200 μM). The compounds are capable of disassembling PHFs with varying efficiencies (see Table 2).

[1] = ThS fluorescence, read-out: Inhibition of tau aggregation IC50, K18/ΔK280
[2] = ThS fluorescence, overnight 37° C., read-out: Depolymerisation of PHFs DC50, K19

Structure (SMILES)	inhibition of filament formation, K18/ΔK280 (K18/ΔK280)	IC50 (K18/ΔK280; [1])	ranking as inhibitor, K18/ΔK280, Trp fluorescence (K18/ΔK280/Y310W)	depolymerisation of K19 PHFs (K19 PHFs)	DC50 (PHFs from K19; [2])	IC50 (K18/ΔK280; Inhibition of tau aggregation IC50, K18/ΔK280, ThS fluorescence)	DC50 (PHFs from K19; read-out: Depolymerisation of PHFs DC50, K19, ThS fluorescence, overnight 37° C.)
O=C(c1ccccc1)c1ccc(O)c(O)c1O [PHF005, 1-Phenyl-1-(2,3,4-trihydroxy-phenyl)-methanone]	failed nearly completely	> 60 µM	best	Nearly no effects	9.4 µM	–	–
O=C1c2ccc(O)c(O)c2C(=O)c2c(O)ccc(O)c21 [PHF016, 1,2,5,8-Tetrahydroxy-anthraquinone]	–	1.3 µM	worst	–	7.8 µM	–	–
COc1cccc2c1C(=O)c1c(O)c3c(c(O)c1C2=O)CC(O)(C(C)=O)CC3OC1CC(N)C(O)C(C)O1 (centres unmarked) [Daunorubicin, 8-Acetyl-10-(4-amino-5-hydroxy-6-methyl-tetrahydro-pyran-2-yloxy)-6,8,11-trihydroxy-1-methoxy-7,8,9,10-tetrahydro-naphthacene-5,12-dione, reference compound]	–	48 µM and 48.1 µM	–	–	3.1 µM	–	–
Cc1cc(O)c2c(c1)C(=O)c1cc(O)cc(O)c1C2=O [Emodin, 1,3,8-Trihydroxy-6-methyl-anthraquinone]	–	1.9 µM	–	–	2 µM	–	–
COc1cccc2c1C(=O)c1c(O)c3c(c(O)c1C2=O)CC(O)(C(=O)CO)CC3OC1CC(N)C(O)C(C)O1 (centres unmarked) [Adriamycin, 10-(4-Amino-5-hydroxy-6-methyl-tetrahydro-pyran-2-yloxy)-6,8,11-trihydroxy-8-(2-hydroxyethanoyl)-1-methoxy-7,8,9,10-tetrahydro-naphthacene-5,12-dione, reference compound]	–	–	–	–	–	3.9 µM	27 µM
